Measurements: PubChem BioAssay (NCI)
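96-well plates; 48 h exposure; 5 concentrations. Endpoints by linear interpolation between flanking doses. Not reached: highest tested concentration assigned. At the GI50, growth is halved. At the TGI there is no net growth.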

Tests used:
Assay in all cases: NCI-60 cell line screen, 48 h
[1] = tested on: A498 renal
[2] = tested on: A549 NSCLC
[3] = tested on: BT-549 breast
[4] = tested on: CAKI-1 renal
[5] = tested on: EKVX NSCLC
[6] = tested on: HCC-2998 colon
[7] = tested on: HCT-116 colon
[8] = tested on: RXF 393 renal
[9] = tested on: SK-MEL-5 melanoma
[10] = tested on: SN12C renal

Row | Structure (SMILES) | GI50 [1] [nM] | TGI [1] [µM] | GI50 [2] [µM] | TGI [2] [µM] | GI50 [3] [µM] | TGI [3] [µM] | GI50 [4] [µM] | TGI [4] [µM] | GI50 [5] [nM] | TGI [5] [µM] | GI50 [6] [µM] | TGI [6] [µM] | GI50 [7] [nM] | TGI [7] [µM] | GI50 [8] [nM] | TGI [8] [µM] | GI50 [9] [nM] | TGI [9] [µM] | GI50 [10] [µM] | TGI [10] [µM]
1 | CC1OC2CC(=O)OC2C2=C1C(=O)c1c(O)cccc1C2=O (configuration not stated) | 348 | 1.38 | 0.831 | 2.68 | 0.177 | 0.368 | 0.0423 | 0.148 | 407 | 1.59 | 0.236 | 0.558 | 28.6 | 0.107 | 19.5 | 0.0499 | 124 | 0.251 | 0.116 | 0.259
2 | C=C(C)[C@@]12OC3(/C=C/C=C/CCCCC)O[C@@H]1[C@@H]1[C@@H]4O[C@]4(CO)[C@@H](O)[C@]4(O)C(=O)C(C)=C[C@H]4[C@@]1(O3)[C@H](C)[C@H]2OC(=O)c1ccccc1 | < 10 | – | < 0.01 | 2.04 | 1.66 | 4.38 | < 0.01 | 0.0347 | 1280 | 2.86 | < 0.01 | 1.8 | 1650 | 3.33 | 1870 | 3.49 | < 10 | 1.86 | 1.49 | 2.83
3 | CC/C(=C(/c1ccc(OCCN(C)C)cc1)c1ccc(OC(=O)CCCCC(=O)c2c(C)[nH]c(/C=C3\N=C(c4ccc[nH]4)C=C3OC)c2C)cc1)c1ccccc1 | 12800 | 26.1 | 3.92 | 15.7 | 3.57 | 17 | 6.27 | 36.1 | – | – | 13.2 | 26.7 | 3550 | 13.9 | 3860 | 17.7 | 1610 | 3.11 | 5.39 | 21.4
4 | O=C(Nc1ccc(OS(=O)(=O)c2ccccc2)cc1)C12CC3CC(CC(C3)C1)C2 | 2040 | 48.7 | 6.9 | > 100 | 3.24 | > 100 | 7.08 | > 100 | – | – | 5.48 | > 100 | 2500 | > 100 | 5120 | > 100 | 3120 | > 100 | > 100 | > 100
5 | C[As](C)SC1OC(CO)C(O)C1O (configuration not stated) | 516 | 3.62 | 2.25 | > 61 | 0.628 | 3.21 | 0.0487 | 0.402 | 877 | 10.4 | – | – | 302 | 1.24 | 176 | 2.37 | 215 | 0.583 | 0.312 | 1.52
6 | CCOc1nc(-c2ccccc2)cc2c(O)c(-c3nnco3)[nH]c(=O)c12 | 2560 | 58 | 4.55 | > 100 | 3.23 | > 100 | 4.15 | > 100 | – | – | 5.57 | > 100 | 6070 | > 100 | 3710 | 25.2 | 2160 | 8.18 | 3.27 | > 100
7 | COc1ccc(C(=O)c2cc(OC)c(C)c(OC)c2)cc1OC(=O)CCl | 2090 | 7.39 | 1.11 | > 100 | 0.395 | 10.3 | 0.591 | 77.7 | 3600 | > 100 | 0.633 | 19.3 | 392 | > 38.3 | 330 | 32.5 | 463 | 3.4 | 0.638 | 37.1
8 | CC(SC(C)C(=O)N/N=C/c1cccc(Cl)c1)C(=O)N/N=C\c1cccc(Cl)c1 (configuration not stated) | 14600 | 32.2 | 3.3 | 12.3 | 18.2 | 41.6 | 61.4 | > 100 | 13300 | 59.7 | 8 | 75.8 | 2650 | 7.94 | 22600 | 90.1 | 16300 | 31.4 | 12.1 | 53.9
9 | Oc1ccc(Cl)cc1Cc1cc(Cl)cc(Cl)c1O | 8730 | 29.2 | 5.48 | 47.6 | 3.32 | 11.9 | 7.86 | 35.9 | 3750 | 62.5 | 6.52 | 18.9 | 3530 | 12.9 | 2540 | 8.54 | 1850 | 4.89 | 3.7 | 21.8
10 | O=c1c2ccccc2[se]n1-c1cccnc1 | – | 61.9 | – | > 100 | – | 84.6 | – | > 100 | – | > 100 | – | 33.8 | – | > 100 | – | 69.2 | – | 26.7 | – | 99.4
11 | C=C(F)C(=O)N1CCN(c2nc(OC[C@@H]3CCCN3C)nc3c2CCN(c2cccc4cccc(Cl)c24)C3)C[C@@H]1CC#N | 1390 | 2.86 | 0.673 | 2.57 | 2.19 | 4.57 | 0.926 | 2.44 | 1930 | 7.53 | 1.2 | 2.66 | 562 | 1.88 | 1290 | 2.66 | 1630 | 3.06 | 1.31 | 2.83
12 | CC(=O)OC1Oc2ccccc2-c2oc(=O)c(-c3cc(=O)oc4cc(O)ccc34)cc21 (configuration not stated) | 13300 | 40.4 | 24 | > 100 | 15.3 | 41.4 | 21.7 | 83.7 | 17500 | 49.3 | – | – | 25000 | > 100 | 4500 | 20.6 | 13200 | 26.5 | 30.9 | > 100
13 | Cn1cc(C2=C(c3ccc4ccccc4c3)C(=O)NC2=O)c2ccccc21 | > 25000 | > 25 | > 21.8 | > 25 | > 25 | > 25 | > 16.7 | > 25 | – | – | > 25 | > 25 | 15600 | > 25 | > 25000 | > 25 | > 25000 | > 25 | > 25 | > 25
